# EP3381909A1, “NEW TRIAZINE SUBSTANCE FOR USE IN THE TREATMENT OF CANCER, SPECIFICALLY IN THE TREATMENT OF NON-SMALL CELL CANCER, AND PHARMACEUTICAL COMPOSITION COMPRISING SAID SUBSTANCE” (Universite de Nantes, priority 2017, dated 2018)
# Where two headings read alike, the source gives them in different places.
# What was measured:
# A549 [1] = assay: Cytotoxicity determination, continuous drug exposure (MTT colorimetric assay); format: cell-based; conditions: for IC50: Homo sapiens, A549 cell line, MTT, read-out: IC50: Half maximal inhibitory concentration
# Experimental: (§1) A549 and NSCLC-N6 cell lines were used for all experiments. They were obtained respectively from an adenocarcinoma and an epidermoid lung cancer. The NSCLC-N6-L16 cell line was derived from a human non-small-cell bronchopulmonary carcinoma (moderately differentiated, classified as T2N0M0). The A549 was obtained from the ATCC collection (reference CCL-185) and is known to have a wild type p53 gene, while NSCLC-N6 has a mutant p53 gene, similar to the in situ tumors.
# (§2) Both cell lines were cultured in RPMI-1640 medium with 5% fetal bovine serum, to which were added 100 IU penicillin/ml, 100 µg/mL streptomycin and 2 mM glutamine at 37°C in an air/carbon dioxide (95:5, v/v) atmosphere. The NSCLC-N6-L16 cell line is a model which never exceeded 35 passages in all experiments. Then this model stays very close to the original tumor.
# (§3) Experiments were performed in 96-well microtiter plates (10^5 cells/mL for NSCLC-N6-L16 and 2X10^4 cells/mL for A549). Cell growth was estimated by a colorimetric assay based on the conservation of tetrazolium dye (MTT) to a blue formazan product by live mitochondria. Eight repeats were performed for each concentration. Control growth was estimated from 8 determinations. Optical density at 570 nm corresponding to solubilized formazan was read for each well on a Titertek Multiskan MKII.
# NSCLC-N6-L16 [2] = assay: as above; format: cell-based; conditions: Homo sapiens, read-out: IC50: Half maximal inhibitory concentration
# Experimental: as §1, §2, §3
# NSCLC-N6-L16 [3] = assay: Continuous drug exposure growth kinetics over 72 h; format: cell-based, human; conditions: for "plateau" of cytostatic type, time of treatment after which it is visible: NSCLC-N6-L16, highest doses, A190: 104.9 µM, 78.9 µM, A204: 8.4 µM, 5.6 µM
# Experimental: as §3
# (§4) The kinetics were carried out on the two cell lines NSCLC-N6-L16 and A549 over a time of 72 h. The results are presented in the graphs of figures 1 to 4 representing the cell growth as a function of time. One of the curves represents the cell growth control; the others correspond to the different concentrations tested. The latter are chosen according to the IC50 in order to surround it at best (Table 3).
# A549 [4] = assay: Continuous drug exposure growth kinetics over 72 h; format: cell-based; conditions: for cell growth (proliferation) versus time: A549, 72 h kinetics
# Experimental: as §3, §4
# [5] = test system: A549 cells synchronised in M phase; conditions: after 17 hours of treatment, previous work; cited from earlier work
# mutant p53, NEDD9 gene = conditions: Rousseau et al., Sci. Rep. 5, 10556, 2015; cited from earlier work
# [6] = test system: NSCLC-N6-L16 cells synchronised in M phase; assay: Gene expression by quantitative real-time RT-PCR in cells synchronised in M phase; format: cell-based, human
# From the text: (§5) During the mitosis, cell shape and adhesion are radically changed. Indeed, this phase induces a depolymerization of the microtubules, a loss of the cytoskeleton and consequently a decrease of the adhesion to the support. […] It is thus easy to isolate these cells by a slight agitation of the culture medium in order to remove and suspend the cells. The cells are then recovered by slow centrifugation and replaced in a new culture flask.
# (§6) Total RNA was extracted from NSCLC-N6-L16 and A549 cell lines using the Dynabeads® mRNA DirectTM Kit (Ambion by Life Technologies). The isolation protocol relies on base pairing between the polyA residues at the 3' end of most mRNA and the oligo (dT) residues covalently coupled to the surface of the Dynabeads®. The quality and concentration of purified RNA were assessed using UV absorbance at 260/280 nm and samples were run on 1% agarose gel in order to assess their quality. RNA was stored at - 80 °C.
# RT was carried out with 1 µg of RNA in 10 µL with 0.125 µg/µL random primers and RNase-free water. This mixture was denatured at 65°C for 10 min then kept on ice. Subsequently, it was completed to a final volume of 25 µL with a mix containing 8 mM of dNTP mix, 1X of M- MLV 5X reaction buffer, 25 units of recombinant RNasin ribonuclease inhibitor (Promega), and 200 units of M-MLV RT (Promega) and RNase-free water. In order to check whether the samples were contaminated by genomic DNA, the same mix was made with RNA without the reverse transcriptase. Following this step, samples were incubated for 2 h at 37°C. cDNAs were stored at -20°C. After reverse transcription, cDNAs were used as a template for specific qPCR.
# Real-time RT-PCR was carried out in a final volume of 25 µL with 1µL 1:20 dilution of diluted cDNA mixture, 10 pmol gene-specific forward and 10 pmol reverse primer in 1X SYBR Green PCR master mix (Eurogentec) with the following protocol: 15 s at 95 °C for denaturation, 30 s at 60°C for annealing and extension on a ABI Prism Sequence Detection System 5700 (Applied Biosystems). The primers were designed using Primer 3 (http://frodo.wi.mit.edu/). All primer sequences were controlled with a dimers finder to reduce the risk of unspecific hybridization of Sybr-green (Operon oligo toolkit: see https://www.operon.com(oligos/toolkit.php).
# The relative expression of each gene was normalized to that of human β-actin: forward 5'-[…]-3' (SEQ ID NO: 13), reverse 5'-[…]-3' (SEQ ID NO: 14) (10 mM, Sigma Genosys). Normalization was carried out using the ΔΔCt method. Non-template control sample was used for each PCR to check the genomic DNA contaminations of the cDNA template. Analysis of the results was carried out using GenAmp 5700 SDS (Applied Biosystems) software.
# The expression of four genes of interests were studied in the cell line NSCLC-N6-L16: HEF1, p53, C3G and FAK. It was carried out by RT-QPCR on the synchronized cells not treated (dark histograms) or treated (grey histograms) by A240 at the IC50. The study was performed between 10 and 17 hours in order to follow the gene expression with an extraction every hour.
# [7] = test system: A549 cells synchronised in M phase; assay: as above; format: cell-based; conditions: A549, at 17 hours; treated at the IC50 (figure legend: 39.4µM)
# From the text: as §5, §6
# RT was carried out with 1 µg of RNA in 10 µL with 0.125 µg/µL random primers and RNase-free water. This mixture was denatured at 65°C for 10 min then kept on ice. Subsequently, it was completed to a final volume of 25 µL with a mix containing 8 mM of dNTP mix, 1X of M- MLV 5X reaction buffer, 25 units of recombinant RNasin ribonuclease inhibitor (Promega), and 200 units of M-MLV RT (Promega) and RNase-free water. […]
# synchronized cells = assay: Activity kinetics on synchronized cells (data not shown); format: cell-based
# From the text: as §5
# It was observed that the cell doubling time of the cell line NSCLC-N6-L16 is about 17 hours and 22-23 hours for A549. Indeed, the molecule A204 act on different genes such as HEF1, the expression of which is variable along the cell cycle.
smiles,measurement,setting,value
NC1=NC(C23CC4CC(CC(C4)C2)C3)N(c2ccc(Cl)cc2)C(N)=N1 (centres unmarked) [A190],IC50,A549 [1],71 ± 1.2 µM
same,IC50,NSCLC-N6-L16 [2],24.1 ± 2.2 µM
same,cell growth (proliferation) versus time,"NSCLC-N6-L16 [3]; NSCLC-N6-L16, 72 h kinetics",reduced for both cell lines in a dose-dependent manner
same,cytostatic activity since (concentration),"NSCLC-N6-L16 [3]; NSCLC-N6-L16, continuous exposure",≥ 26.3 µM
same,"""plateau"" of cytostatic type, time of treatment after which it is visible",NSCLC-N6-L16 [3],> 48 h
same,cell growth (proliferation) versus time,A549 [4],reduced for both cell lines in a dose-dependent manner
same,cytostatic activity since (concentration),"A549 [4]; A549, continuous exposure",≥ 26.3 µM
same,"plateau of cytostatic type, time of treatment after which it is visible","A549 [4]; A549, A190 at 104.9, 78.9, 52.6, 26 µM",> 48 h
same,expression of gene AKT,[5],overexpression
same,expression of gene PI3K,[5],overexpression
same,expression of the NEDD9 gene,"mutant p53, NEDD9 gene",overexpression
same,mutant p53 activity,"mutant p53, NEDD9 gene",restores mutant p53 activity
"NC1=NC(C23CC4CC(CC(C4)C2)C3)N(Cc2ccc(Cl)cc2)C(N)=N1 (centres unmarked) [A204, 4,6-diamino-1,2-dihydro-1-(4""-chlorobenzyl)-2-(1-tricyclo [3.3.1.1,4]decyl)-1,3,5-triazine]",IC50 / amount required compared with A190,"A549 [1]; A549, relative to A190",seven times less
same,IC50,A549 [1],9.7 ± 0.7 µM
same,IC50,NSCLC-N6-L16 [2],5.01 ± 0.5 µM
same,"""plateau"" of cytostatic type, time of treatment after which it is visible",NSCLC-N6-L16 [3],> 48 h
same,cell growth (proliferation) versus time,A549 [4],follow perfectly that of the control cells
same,expression of gene P53,"[6]; 10 to 17 hours, treated vs control",clearly shows an influence of the treatment on the expression
same,time of action compared with A190,"[6]; NSCLC-N6-L16, same cytostatic effect, relative to A190",three hours earlier
same,expression of gene C3G,[6]; at 17 hours (G2 / M phase),collapse
same,expression of gene HEF1,"[6]; at around 12 hours, treated at the IC50 (figure legend: 39.4µM) vs control",highly overexpressed
same,expression of gene C3G,[6]; between 11 and 13 hours (end of G1 phase),widely overexpressed
same,expression of gene FAK,[6]; between 12 and 16 hours (phase of synthesis),decreased expression
same,expression of gene HEF1,[6]; between 13 and 15 hours,collapses
same,expression of gene C3G,[6]; between 13 and 16h,goes up gradually
same,expression of gene HEF1,[6]; between 15 and 17 hours (G2 / M phase),relatively close to the level of the control cells
same,expression of gene AKT,[7],overexpression
same,expression of gene PI3K,[7],overexpression
same,time at which the effect of the treatment is beginning,synchronized cells,around 30 hours
